Legend:
SARS-CoV-2 replicon = assay: microbe, parasite or virus in culture; format: cell-based; conditions: Severe acute respiratory syndrome coronavirus 2, Huh-7, 24 h; read-out: Replicon EC50
COVID-19 WT Mpro = target: T1, COVID-19 WT Mpro (Severe acute respiratory syndrome coronavirus 2, UniProt P0DTD1); assay: biochemical; conditions: WT Mpro 25 nM, substrate 25 μM, 30 min pre-incubation; several values in a cell = repeat determinations
T1 construct: The C-His6-tagged COVID-19 WT Mpro (NC_045512); His6 (C); host or cells: E. coli

[1] = tested on: human coronavirus (HCoV) 229E; assay: microbe, parasite or virus in culture; format: cell-based, human coronavirus 229E; conditions: unidentified human coronavirus, 72 h, MRCS cells, HCoV 229E, 3 days, CellTiter Glo; read-out: 229E CPE EC50
Description: Test compounds were provided by the sponsor. Reference compound remdesivir was provided by WuXi AppTec. Compounds were assayed at 8 concentrations (to be defined by sponsor), in duplicate wells.
MRCS cells were obtained from the ATCC, and maintained in the Minimum Essential Medium supplemented with 10% FBS, 1% L-glutamine, 1% NEAA and 1% penicillin-streptomycin. Minimum Essential Medium supplemented with 5% FBS, 1% L-glutamine, 1% NEAA and 1% penicillin-streptomycin was used as the assay medium.
Cells were seeded in 96 well plates, in 100 μl per well of assay medium, and cultured at 37° C. and 5% CO2 overnight. Next day, test compound was diluted with assay medium and then added into the cells, 50 μl per well. Then 50 μl per well of assay medium diluted virus was added. The final volume of the cell culture was 200 μl per well. […] The CPE were measured by CellTiter Glo following the manufacturer's manual. The antiviral activity of compounds was calculated based on the protection of the virus-induced CPE at each concentration normalized by the virus control.
EC50 and CC50 values were calculated using the GraphPad Prism software using the nonlinear regression model of log(inhibitor) vs. response—Variable slope (four parameters).

CC(C)(C)[C@H](NC(=O)c1cc2ccccc2s1)C(=O)N1C[C@H]2[C@@H]([C@H]1C(=O)N[C@H](C#N)C[C@@H]1CCNC1=O)C2(C)C [Compound 26] was tested. Which EC50 (SARS-CoV-2 replicon) did it give?
Its EC50 is 2560 nM.

And the IC50 (COVID-19 WT Mpro)?
Its IC50 is 0.41 µM.

And the EC50 [1]?
Its EC50 is 5.86 µM.

Which results are given for CC(C)(C)[C@H](NC(=O)c1nc2ccccc2[nH]1)C(=O)N1C[C@H]2[C@@H]([C@H]1C(=O)N[C@H](C#N)C[C@@H]1CCNC1=O)C2(C)C [Compound 41]?
EC50 (SARS-CoV-2 replicon): > 30000 nM; IC50 (COVID-19 WT Mpro): 7.88 µM; EC50 [1]: > 30 µM

— patent US11760722B2 (priority 2022, dated 2023)
